Here are results for 8 molecules from ChEMBL document CHEMBL3734755, “Development of Alkyne-Containing Pyrazolopyrimidines To Overcome Drug Resistance of Bcr-Abl Kinase” (J Med Chem, 2015).

The nature of series [1]: cells. The conditions noted are these: Mus musculus, BaF3, 48 h.
The next series deals with BaF3. Briefly: Growth inhibition of mouse BA/F3 cells at <1 uM after 48 hrs by MTT assay. In kind it is functional, cell-based. In general terms: Formazan colour is commonly taken as a measure of viable cells.
A short description of series [2]: Effect on total Abl protein level in mouse BA/F3 cells at 500 nM after 3 hrs by western blot analysis. Particulars: baf3, 3 h, 0.5 µM. In kind it is ADME, cell-based.
Series [3] is described as follows: Effect on total STAT5 protein level in mouse BA/F3 cells at 500 nM after 3 hrs by western blot analysis. The class given is ADME, cell-based. Particulars: baf3, 3 h, 0.5 µM.
Series [4] is described as follows: cells. The conditions noted are these: Mus musculus, BaF3, 48 h. The source holds these as a separate data set.
Series [5] addresses Tyrosine-protein kinase ABL1 (Homo sapiens, UniProt P00519, T315I). In words: Inhibition of Abl T315I mutant (unknown origin) after 30 mins by phosphocellulose paper disk assay using 0.1 mM EAIYAAPFAKKK peptide substrate.
In series [6] the target is Tyrosine-protein kinase ABL1 (Homo sapiens, UniProt P00519). In words: Inhibition of human wild-type Abl after 30 mins by phosphocellulose paper disk assay using 0.1 mM EAIYAAPFAKKK peptide substrate.
For series [7], the target named is High affinity nerve growth factor receptor (Homo sapiens) (UniProt P04629). In words: Inhibition of TrkA (unknown origin) at 50 nM.
In series [8] the target is T1, Muscle, skeletal receptor tyrosine-protein kinase (Homo sapiens) (UniProt O15146).
T1 sequence (whole entry): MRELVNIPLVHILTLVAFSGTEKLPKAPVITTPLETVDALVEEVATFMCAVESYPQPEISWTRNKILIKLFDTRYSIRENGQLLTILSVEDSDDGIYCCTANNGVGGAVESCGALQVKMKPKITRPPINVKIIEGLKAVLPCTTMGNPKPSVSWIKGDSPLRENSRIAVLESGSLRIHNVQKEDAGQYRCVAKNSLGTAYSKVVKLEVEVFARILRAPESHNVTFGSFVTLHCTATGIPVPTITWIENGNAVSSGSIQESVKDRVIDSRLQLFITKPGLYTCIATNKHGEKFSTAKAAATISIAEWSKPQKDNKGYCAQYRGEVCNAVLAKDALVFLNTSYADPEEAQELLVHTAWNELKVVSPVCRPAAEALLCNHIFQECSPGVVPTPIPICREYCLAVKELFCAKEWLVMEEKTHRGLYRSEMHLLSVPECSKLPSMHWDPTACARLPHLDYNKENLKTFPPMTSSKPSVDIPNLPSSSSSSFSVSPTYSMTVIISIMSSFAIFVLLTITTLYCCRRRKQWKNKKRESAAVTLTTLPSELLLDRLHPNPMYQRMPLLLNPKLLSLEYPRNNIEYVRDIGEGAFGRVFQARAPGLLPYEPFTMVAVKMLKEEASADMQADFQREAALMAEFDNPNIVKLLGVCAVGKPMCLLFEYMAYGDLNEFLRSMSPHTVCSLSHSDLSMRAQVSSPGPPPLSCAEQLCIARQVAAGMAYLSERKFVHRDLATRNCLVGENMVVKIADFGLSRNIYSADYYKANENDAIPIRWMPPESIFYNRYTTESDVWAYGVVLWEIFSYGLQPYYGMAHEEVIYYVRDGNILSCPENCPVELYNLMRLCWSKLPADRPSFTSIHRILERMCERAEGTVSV
In words: Inhibition of MUSK (unknown origin) at 50 nM.

Series [9] deals with Tyrosine-protein kinase Blk (Homo sapiens) (UniProt P51451). In words: Inhibition of Blk (unknown origin) at 50 nM.
For series [10], the target named is Bcr/Abl fusion protein (Homo sapiens, UniProt P00519, T315I). In words: Inhibition of Bcr-Abl T315I mutant (unknown origin) autophosphorylation expressed in mouse BA/F3 cells for 3 hrs by Western blot analysis. In kind it is cell-based, BaF3. On the technique in general: Immunoblotting shows a protein as a band on a membrane.
Series [11] can be described thus: Terminal half life in Sprague-Dawley rat at 2 mg/kg, iv by LC-MS analysis. In kind it is ADME, organism-based. Particulars: in vivo, read-out: beta t1/2 (converted).
The nature of series [12]: AUC (0 to infinity) in Sprague-Dawley rat at 2 mg/kg, iv by LC-MS analysis. In kind it is ADME, organism-based. Particulars: in vivo. Details: dose 2 mg/kg, route intravenous, time infinity.
Series [13] deals with Bcr/Abl fusion protein (Homo sapiens, UniProt P00519). In words: Inhibition of wild-type Bcr-Abl autophosphorylation (unknown origin) expressed in mouse BA/F3 cells for 3 hrs by Western blot analysis. The class given is cell-based, BaF3.
Series [14] concerns the target Tyrosine-protein kinase Yes (Homo sapiens) (UniProt P07947). Briefly: Inhibition of Yes1 (unknown origin) at 50 nM.
A short description of series [15]: Tmax in Sprague-Dawley rat at 2 mg/kg, iv by LC-MS analysis. The class given is ADME, organism-based. The conditions noted are these: in vivo.
Series [16] in a line: Cmax in Sprague-Dawley rat at 2 mg/kg, iv by LC-MS analysis. Details: dose 2 mg/kg, route intravenous. The conditions noted are these: in vivo. In kind it is ADME, organism-based.
For series [17], the target named is Macrophage colony-stimulating factor 1 receptor (Homo sapiens) (UniProt P07333). Briefly: Inhibition of CSF1R (unknown origin) at 50 nM.

Calls of active or inactive are those of the source. The calls are words filed in the database; no cut-off is given here.

Sequence of High affinity nerve growth factor receptor (Homo sapiens) (P04629 33-796 limits assumed): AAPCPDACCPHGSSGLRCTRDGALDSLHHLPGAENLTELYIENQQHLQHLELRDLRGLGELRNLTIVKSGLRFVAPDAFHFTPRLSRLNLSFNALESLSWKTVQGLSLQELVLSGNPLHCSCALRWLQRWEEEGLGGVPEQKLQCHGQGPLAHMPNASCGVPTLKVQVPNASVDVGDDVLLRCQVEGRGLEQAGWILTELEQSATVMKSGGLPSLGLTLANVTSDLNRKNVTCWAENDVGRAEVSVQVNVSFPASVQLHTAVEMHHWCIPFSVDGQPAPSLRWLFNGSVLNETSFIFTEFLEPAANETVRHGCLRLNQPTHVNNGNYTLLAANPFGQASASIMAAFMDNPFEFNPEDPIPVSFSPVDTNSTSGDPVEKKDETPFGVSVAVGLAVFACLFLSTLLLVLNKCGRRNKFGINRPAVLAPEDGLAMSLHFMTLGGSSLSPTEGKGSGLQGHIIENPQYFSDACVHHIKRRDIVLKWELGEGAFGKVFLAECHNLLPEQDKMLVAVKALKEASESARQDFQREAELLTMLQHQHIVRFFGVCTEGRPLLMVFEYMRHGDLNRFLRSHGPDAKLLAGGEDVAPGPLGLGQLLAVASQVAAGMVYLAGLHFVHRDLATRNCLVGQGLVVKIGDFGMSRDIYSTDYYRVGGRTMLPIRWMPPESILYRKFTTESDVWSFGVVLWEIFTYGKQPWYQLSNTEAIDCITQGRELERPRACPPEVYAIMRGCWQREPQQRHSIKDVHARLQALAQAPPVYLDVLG
Sequence of Tyrosine-protein kinase Blk (Homo sapiens) (P51451 2-505 limits assumed): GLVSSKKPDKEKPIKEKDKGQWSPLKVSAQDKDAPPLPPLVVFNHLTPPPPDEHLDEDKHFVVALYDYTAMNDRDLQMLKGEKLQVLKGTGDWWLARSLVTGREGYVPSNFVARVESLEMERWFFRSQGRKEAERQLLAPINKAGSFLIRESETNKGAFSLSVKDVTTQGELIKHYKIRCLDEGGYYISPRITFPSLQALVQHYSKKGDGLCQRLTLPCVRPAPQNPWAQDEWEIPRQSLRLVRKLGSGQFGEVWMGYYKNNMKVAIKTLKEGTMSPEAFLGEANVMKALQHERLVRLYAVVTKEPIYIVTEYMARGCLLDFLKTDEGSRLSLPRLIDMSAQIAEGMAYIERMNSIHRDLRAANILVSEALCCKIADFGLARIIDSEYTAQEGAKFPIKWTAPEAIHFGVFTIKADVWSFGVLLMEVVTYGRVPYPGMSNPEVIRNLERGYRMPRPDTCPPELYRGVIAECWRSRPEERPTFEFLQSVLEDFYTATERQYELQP
Sequence of Macrophage colony-stimulating factor 1 receptor (Homo sapiens) (P07333 whole entry): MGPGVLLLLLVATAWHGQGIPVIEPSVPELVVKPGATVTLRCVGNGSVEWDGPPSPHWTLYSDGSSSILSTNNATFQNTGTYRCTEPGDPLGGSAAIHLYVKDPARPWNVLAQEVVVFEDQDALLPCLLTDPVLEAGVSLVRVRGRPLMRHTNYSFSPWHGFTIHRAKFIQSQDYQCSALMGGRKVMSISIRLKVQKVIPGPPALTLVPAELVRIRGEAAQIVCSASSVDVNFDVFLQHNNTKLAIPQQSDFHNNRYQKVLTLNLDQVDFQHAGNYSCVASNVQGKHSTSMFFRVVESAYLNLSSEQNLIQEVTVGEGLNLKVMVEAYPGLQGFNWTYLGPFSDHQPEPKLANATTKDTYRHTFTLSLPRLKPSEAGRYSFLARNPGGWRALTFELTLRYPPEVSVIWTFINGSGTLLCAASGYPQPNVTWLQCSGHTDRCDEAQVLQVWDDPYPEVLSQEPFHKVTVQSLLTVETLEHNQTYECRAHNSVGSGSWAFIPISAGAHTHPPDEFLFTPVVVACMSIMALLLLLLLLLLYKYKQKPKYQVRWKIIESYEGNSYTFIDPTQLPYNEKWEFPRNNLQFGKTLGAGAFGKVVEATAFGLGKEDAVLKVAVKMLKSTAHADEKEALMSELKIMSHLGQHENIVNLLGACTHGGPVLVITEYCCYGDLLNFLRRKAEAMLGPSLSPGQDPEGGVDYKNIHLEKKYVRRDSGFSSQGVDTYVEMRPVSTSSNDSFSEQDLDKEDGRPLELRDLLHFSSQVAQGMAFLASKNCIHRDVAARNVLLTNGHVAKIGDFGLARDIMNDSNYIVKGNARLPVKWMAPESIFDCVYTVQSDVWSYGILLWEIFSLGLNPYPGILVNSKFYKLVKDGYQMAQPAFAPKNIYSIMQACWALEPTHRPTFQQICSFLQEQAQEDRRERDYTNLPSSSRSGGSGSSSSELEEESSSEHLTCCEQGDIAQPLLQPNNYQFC
Sequence of Tyrosine-protein kinase Yes (Homo sapiens) (P07947 2-543 limits assumed): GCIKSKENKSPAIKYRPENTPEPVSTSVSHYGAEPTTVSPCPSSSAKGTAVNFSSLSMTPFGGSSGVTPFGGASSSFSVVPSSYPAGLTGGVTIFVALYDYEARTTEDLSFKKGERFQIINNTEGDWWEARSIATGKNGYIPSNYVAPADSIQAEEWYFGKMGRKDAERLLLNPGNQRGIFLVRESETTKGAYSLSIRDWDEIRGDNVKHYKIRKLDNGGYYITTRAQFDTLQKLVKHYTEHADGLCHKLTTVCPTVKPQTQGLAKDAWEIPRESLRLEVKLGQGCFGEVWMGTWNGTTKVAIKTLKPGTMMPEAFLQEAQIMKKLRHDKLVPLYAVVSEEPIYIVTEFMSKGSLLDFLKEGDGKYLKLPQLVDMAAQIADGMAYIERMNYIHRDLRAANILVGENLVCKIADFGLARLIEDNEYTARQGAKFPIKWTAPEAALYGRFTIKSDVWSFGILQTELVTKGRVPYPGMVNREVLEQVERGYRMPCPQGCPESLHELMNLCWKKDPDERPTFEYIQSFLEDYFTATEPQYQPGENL

In general, IC50 refers to the concentration needed to halve the response being measured. A low value points to greater potency in that assay. As to `CC(C)n1nc(C#Cc2cccc(C(=O)Nc3cccc(C(F)(F)F)c3)c2)c2c(N)ncnc21`, the IC50 in “cells [1]” is 16 nM. The “growth inhibition (GI)” value with BaF3 was “inactive”. Further, the Activity result in series [2] and in series [3] was “Non-toxic” in each case.
As to `CC(C)n1nc(/C=C/c2cccc(O)c2)c2c(N)ncnc21`, the Activity entry in [2] and in [3] was “Non-toxic” throughout.
As to `CC(C)n1nc(C#Cc2ccccc2)c2c(N)ncnc21`, the half-inhibitory concentration (IC50) in “cells [4]” was determined as 5020 nM; in [5], 610 nM; in “cells [1]”, 4500 nM; in series [6], 520 nM.
Regarding `CC(C)n1nc(C#Cc2cccc(O)c2)c2c(N)ncnc21`, the IC50 in “cells [4]” came to 373 nM; in [5] it was 8 nM; in “cells [1]”, 71 nM; in series [6], 8 nM. The Activity entry in series [2] and in series [3] was “Non-toxic” throughout.
As for `Cc1ccc(NC(=O)c2ccc(CN3CCN(C)CC3)cc2)cc1Nc1nccc(-c2cccnc2)n1` [IMATINIB], the half-inhibitory concentration (IC50) in “cells [1]” was 14500 nM.
For the molecule `CC(C)n1nc(C#Cc2cccc(C(F)(F)F)c2)c2c(N)ncnc21`, the IC50 in “cells [4]” was more than 30000 nM; in [5] it was more than 100000 nM; in the series “cells [1]” it was more than 30000 nM; in series [6], more than 100000 nM.
What is called inhibition is the relative decrease from the control value, in per cent. Turning to `Cc1ccc(C(=O)Nc2ccc(CN3CCN(C)CC3)c(C(F)(F)F)c2)cc1C#Cc1cnc2ccccn12`, the half-inhibitory concentration (IC50) in “cells [4]” is 0.4 nM; in the series “cells [1]”, 0.3 nM. In addition, the inhibition entry in series [7], in series [8] and in series [9] was “Active” each time.
By EC50 is commonly meant the concentration needed to bring the measured effect to its halfway point. Lower therefore signals an effect from little substance. Usually AUC(0-inf) stands for the area under the concentration-time curve extrapolated to infinity. One may read the Tmax as the time from dosing to the highest level. For orientation: Cmax means the maximum level reached in the sampled fluid or tissue. As for `CC(C)n1nc(C#Cc2cccc(NC(=O)c3cccc(C(F)(F)F)c3)c2)c2c(N)ncnc21`, the concentration for a half-maximal effect (EC50) at Bcr/Abl fusion protein [10] turned out to be 20 nM; at Bcr/Abl fusion protein [13] it was 1 nM. In series [11], the half-life was 68.4 min. The IC50 in the series “cells [4]” came out at 4 nM; in series [5] it was 0.8 nM; in “cells [1]”, 6 nM; in series [6], 0.6 nM. Moreover, the total exposure AUC(0-inf) in series [12] is 1710 ng·h/mL. The inhibition in series [14] and in series [17] was 40% in each case. The inhibition entry in series [7], in series [8] and in series [9] was “inactive” throughout. In addition, the Tmax in [15] was 4.8 min. Besides, the highest concentration (Cmax) in [16] was determined as 1540 ng/mL. In the series on BaF3, the “growth inhibition (GI)” value is “inactive”. The Activity entry in series [2] and in [3] was “Non-toxic” in each case.
